Converted amounts (≈) assume the structure as drawn. Read-outs that look alike come from different tables or passages of the source.
Experiments:
[1] = tested on: Staphylococcus aureus KY4279 ATCC6538P; test: MIC, agar dilution method, pH 8.0; type: cell-based
Description: (§1) Measurement was carried out according to the agar dilution method, using a medium of pH 8.0, or the Japanese Antibiotic Medicament Standard, using a medium of pH 7.2 Units are in mcg/ml.
S.A.: Staphylococcus aureus KY4279 ATCC6538P

[2] = tested on: Escherichia coli R18 KY8321; test: MIC, agar dilution method, pH 7.2; type: cell-based; settings: R18KY8321, E. coli R18 KY8321, 2**: gentamicin, producing adenylsynthetase and neomycin phosphotransferase type II, read-out: Minimum inhibition concentration (MIC)
Description: as §1
2: gentamicin, producing adenylsynthetase and neomycin phosphotransferase

[3] = tested on: Pseudomonas aeruginosa R5 KY8512; test: MIC, agar dilution method, pH 7.2; type: cell-based; settings: R5KY8512, pH 7.2, P. aeruginosa R5 KY8512, 6**: neomycin, producing phosphotransferase type I and type II, read-out: Minimum inhibition concentration (MIC)
Description: as §1
6: neomycin, producing phosphotransferase type I and type II.

[4] = tested on: Pseudomonas aeruginosa UCLA 4184; test: MIC, agar dilution method, pH 7.2; type: cell-based; settings: UCLA4184; pH 7.2; Pseudomonas aeruginosa UCLA 4184; read-out: Minimum inhibition concentration (MIC)
Description: as §1

[5] = tested on: Staphylococcus aureus 209-P; test: MIC, agar dilution method, pH 7.2; type: cell-based; settings: pH 7.2; Staphylococcus aureus 209-P; read-out: Minimum inhibition concentration (MIC)
Description: as §1

Proteus vulgaris JJ = test: MIC, agar dilution method, pH 7.2; type: cell-based
Description: as §1

Shigella sonnei ATCC9290 = test: MIC, agar dilution method, pH 7.2; type: cell-based; settings: read-out: Minimum inhibition concentration (MIC)
Description: as §1

[6] = tested on: Staphylococcus aureus Smith (A); test: MIC, agar dilution method, pH 7.2; type: cell-based; settings: pH 7.2; Staphylococcus aureus Smith (A); read-out: Minimum inhibition concentration (MIC)
Description: as §1

[7] = tested on: Eschericihia coli GN2411-5; test: MIC, agar dilution method, pH 7.2; type: cell-based; settings: Escherichia coli; pH 7.2; E. coli GN2411-5; read-out: Minimum inhibition concentration (MIC)
Description: as §1

[8] = tested on: Pseudomonas aeruginosa BMH# 1; test: MIC, agar dilution method, pH 7.2; type: cell-based; settings: pH 7.2; Pseudomonas aeruginosa BMH# 1; read-out: Minimum inhibition concentration (MIC)
Description: as §1

[9] = tested on: Klebsiella pneumoniae KY4274; test: MIC, agar dilution method, pH 7.2; type: cell-based
Description: as §1

[10] = tested on: Salmonella enteritidis G-14; test: MIC, agar dilution method, pH 7.2; type: cell-based; settings: Salmonella enterica; pH 7.2; Salmonella enteritidis G-14; read-out: Minimum inhibition concentration (MIC)
Description: as §1

Escherichia coli NIHTC-2 = test: MIC, agar dilution method, pH 7.2; type: cell-based; settings: NIHTC2; pH 7.2; Escherichia coli NIHTC-2; read-out: Minimum inhibition concentration (MIC)
Description: as §1

[11] = tested on: Shigella sonnei KY4281 ATCC9290; test: MIC, agar dilution method, pH 8.0; type: cell-based
Description: as §1

[12] = tested on: Proteus vulgaris KY4277 ATCC6897; test: MIC, agar dilution method, pH 8.0; type: cell-based; settings: ATCC6897; pH 8.0; Proteus vulgaris KY4277; read-out: Minimum inhibition concentration (MIC), PV
Description: as §1

Providencia sp 164 = test: MIC, agar dilution method, pH 7.2; type: cell-based; settings: pH 7.2; Providencia sp 164; 7**: gentamicin, producing acetyltransferase type II; read-out: Minimum inhibition concentration (MIC)
Description: as §1
7: gentamicin, producing acetyltransferase type II.

Eschericihia coli 3100 = test: MIC, agar dilution method, pH 7.2; type: cell-based, Escherichia coli
Description: as §1

Bacillus subtilis KY4273 = test: MIC, agar dilution method, pH 8.0; type: cell-based
Description: as §1
B.S.: Bacillus subtilis KY4273

[13] = tested on: Escherichia coli R20 KY8349; test: MIC, agar dilution method, pH 7.2; type: cell-based; settings: R20KY8349, pH 7.2, E. coli R20 KY8349, 5**: neomycin, producing phosphotransferase type I, read-out: Minimum inhibition concentration (MIC)
Description: as §1
5: neomycin, producing phosphotransferase type I.

various microorganisms = test: Antibacterial activity (general statements); type: cell-based; settings: qualitative statement
Description: as §1

[14] = tested on: Staphylococcus a ureus 226; test: MIC, agar dilution method, pH 7.2; type: cell-based, Staphylococcus aureus; settings: pH 7.2; Staphylococcus aureus 226; read-out: Minimum inhibition concentration (MIC)
Description: as §1

[15] = tested on: Salmonella typhosa KY4278 ATCC9992; test: MIC, agar dilution method, pH 8.0; type: cell-based; settings: Salmonella enterica, pH 8, read-out: Minimum inhibition concentration (MIC), ST
Description: as §1
S.T.: Salmonella typhosa KY4278 ATCC9992

[16] = tested on: Pseudomonas aeruginosa R9 KY8516; test: MIC, agar dilution method, pH 7.2; type: cell-based; settings: R9KY8516, pH 7.2, P. aeruginosa R9 KY8516, 3**: kanamycin, producing acetyltransferase, read-out: Minimum inhibition concentration (MIC)
Description: as §1
(§2) 3: kanamycin, producing acetyltransferase.

Serratia marcescens 1065 = test: MIC, agar dilution method, pH 7.2; type: cell-based
Description: as §1, §2

[17] = tested on: Escherichia coli R17 Z343; test: MIC, agar dilution method, pH 7.2; type: cell-based; settings: R17Z343, pH 7.2, E. coli R17 Z343, 3**: kanamycin, producing acetyltransferase, read-out: Minimum inhibition concentration (MIC)
Description: as §1, §2

[18] = tested on: Escherichia coli R19 KY8348; test: MIC, agar dilution method, pH 7.2; type: cell-based; settings: R19KY8348, pH 7.2, E. coli R19 KY8348, 4**: gentamicin, producing acetyltransferase type I, read-out: Minimum inhibition concentration (MIC)
Description: as §1
(§3) 4: gentamicin, producing acetyltransferase type I.

[19] = tested on: Pseudomonas aeruginosa R4 KY8511; test: MIC, agar dilution method, pH 7.2; type: cell-based; settings: R4KY8511, pH 7.2, P. aeruginosa R4 KY8511, 4**: gentamicin, producing acetyltransferase type I, read-out: Minimum inhibition concentration (MIC)
Description: as §1, §3

[20] = tested on: Eschericia coli KY4271 ATCC26; test: MIC, agar dilution method, pH 8.0; type: cell-based; settings: Escherichia coli, ATCC26; pH 8.0; E. coli KY4271; read-out: Minimum inhibition concentration (MIC), EC
Description: as §1
E.C.: Eschericia coli KY4271 ATCC26

[21] = tested on: Escherichia coli 57R/W677; test: MIC, agar dilution method, pH 7.2; type: cell-based; settings: 57R/W677, pH 7.2, read-out: Minimum inhibition concentration (MIC)
Description: as §1
(§4) **1: gentamicin, producing adenylsynthetase.

Escherichia coli 76-2 = test: MIC, agar dilution method, pH 7.2; type: cell-based; settings: Escherichia coli, 762; pH 7.2; E. coli 76-2; 1**: gentamicin, producing adenylsynthetase; read-out: Minimum inhibition concentration (MIC)
Description: as §1, §4

[22] = tested on: Klebsiella pneumoniae 3020 Y-60; test: MIC, agar dilution method, pH 7.2; type: cell-based; settings: 3020Y60; pH 7.2; Klebsiella pneumoniae 3020 Y-60; 1**: gentamicin, producing adenylsynthetase; read-out: Minimum inhibition concentration (MIC)
Description: as §1, §4

[23] = tested on: Escherichia coli R12 Z-338; test: MIC, agar dilution method, pH 7.2; type: cell-based
Description: as §1, §4

[24] = tested on: Klebsiella pneumoniae KY4275 ATCC10031; test: MIC, agar dilution method, pH 8.0; type: cell-based; settings: ATCC10031; pH 8.0; Klebsiella pneumoniae KY4275; read-out: Minimum inhibition concentration (MIC), KP
Description: as §1
K.P.: Klebsiella pneumoniae KY4275 ATCC10031.

CN[C@H]1[C@@H](O)[C@H](O[C@H]2O[C@H]([C@H](C)N)CC[C@H]2N)[C@@H](N)[C@H](O)[C@@H]1OC [Compound 1, fortimicin B]
MIC ([1]; Staphylococcus aureus, pH 8, read-out: Minimum inhibition concentration (MIC), SA): 12.5 µg/mL (≈ 35.9 µM)
MIC [2]: > 100 µg/mL
MIC [3]: > 100 µg/mL
MIC [4]: > 100 µg/mL
MIC [5]: > 100 µg/mL
MIC (Proteus vulgaris JJ; pH 7.2, Proteus vulgaris JJ, read-out: Minimum inhibition concentration (MIC)): > 100 µg/mL
MIC (Shigella sonnei ATCC9290): > 100 µg/mL
MIC [6]: 100 µg/mL (≈ 287 µM)
MIC [7]: > 100 µg/mL
MIC [8]: > 100 µg/mL
MIC ([9]; pH 7.2, Klebsiella pneumoniae KY4274, read-out: Minimum inhibition concentration (MIC)): 100 µg/mL (≈ 287 µM)
MIC [10]: 100 µg/mL (≈ 287 µM)
MIC (Escherichia coli NIHTC-2): > 100 µg/mL
MIC ([11]; ATCC9290, pH 8.0, Shigella sonnei KY4281, read-out: Minimum inhibition concentration (MIC), SS): 50 µg/mL (≈ 143 µM)
MIC [12]: 25 µg/mL (≈ 71.7 µM)
MIC (Providencia sp 164): > 100 µg/mL
MIC (Eschericihia coli 3100; Escherichia coli, pH 7.2, E. coli 3100, read-out: Minimum inhibition concentration (MIC)): 100 µg/mL (≈ 287 µM)
MIC (Bacillus subtilis KY4273; Bacillus subtilis, KY4273, pH 8, read-out: Minimum inhibition concentration (MIC), BS): 12.5 µg/mL (≈ 35.9 µM)
MIC [13]: > 100 µg/mL
Antibacterial activity (various microorganisms): not as good as the other factors
MIC [14]: 100 µg/mL (≈ 287 µM)
MIC [15]: 12.5 µg/mL (≈ 35.9 µM)
MIC [16]: > 100 µg/mL
MIC (Serratia marcescens 1065; pH 7.2, Serratia marcescens 1065, 3**: kanamycin, producing acetyltransferase, read-out: Minimum inhibition concentration (MIC)): > 100 µg/mL
MIC [17]: > 100 µg/mL
MIC [18]: > 100 µg/mL
MIC [19]: > 100 µg/mL
MIC [20]: 25 µg/mL (≈ 71.7 µM)
MIC [21]: > 100 µg/mL
MIC (Escherichia coli 76-2): > 100 µg/mL
MIC [22]: > 100 µg/mL
MIC ([23]; R12Z338, pH 7.2, E. coli R12 Z-338, 1**: gentamicin, producing adenylsynthetase, read-out: Minimum inhibition concentration (MIC)): > 100 µg/mL
MIC [24]: 50 µg/mL (≈ 143 µM)

CO[C@H]1[C@@H](O)[C@H](N)[C@@H](O[C@H]2O[C@H]([C@H](C)N)CC[C@H]2N)[C@H](O)[C@@H]1N(C)CCN [Compound 15, 4-N-(2-aminoethyl)fortimicin B]
MIC ([1]; pH 8.0, Staphylococcus aureus KY4279, read-out: Minimum inhibition concentration (MIC), SA): 0.16 µg/mL (≈ 0.409 µM)
MIC [2]: 3.12 µg/mL (≈ 7.97 µM)
MIC [3]: 12.5 µg/mL (≈ 31.9 µM)
MIC [4]: 12.5 µg/mL (≈ 31.9 µM)
MIC [5]: 0.78 µg/mL (≈ 1.99 µM)
MIC (Proteus vulgaris JJ; Proteus vulgaris, pH 7.2, read-out: Minimum inhibition concentration (MIC)): 6.25 µg/mL (≈ 16 µM)
MIC (Shigella sonnei ATCC9290): 6.25 µg/mL (≈ 16 µM)
MIC [6]: 0.78 µg/mL (≈ 1.99 µM)
MIC [7]: 3.12 µg/mL (≈ 7.97 µM)
MIC [8]: 12.5 µg/mL (≈ 31.9 µM)
MIC ([9]; Klebsiella pneumoniae, KY4274, pH 7.2, read-out: Minimum inhibition concentration (MIC)): 6.25 µg/mL (≈ 16 µM)
MIC [10]: 25 µg/mL (≈ 63.9 µM)
MIC (Escherichia coli NIHTC-2): 3.12 µg/mL (≈ 7.97 µM)
MIC ([11]; Shigella sonnei, ATCC9290, pH 8, read-out: Minimum inhibition concentration (MIC), SS): 1.25 µg/mL (≈ 3.19 µM)
MIC [12]: 0.64 µg/mL (≈ 1.63 µM)
MIC (Providencia sp 164): 12.5 µg/mL (≈ 31.9 µM)
MIC (Eschericihia coli 3100; Escherichia coli, 3100, pH 7.2, read-out: Minimum inhibition concentration (MIC)): 6.25 µg/mL (≈ 16 µM)
MIC (Bacillus subtilis KY4273; pH 8.0, Bacillus subtilis KY4273, read-out: Minimum inhibition concentration (MIC), BS): 0.16 µg/mL (≈ 0.409 µM)
MIC [13]: 3.12 µg/mL (≈ 7.97 µM)
MIC [14]: 0.4 µg/mL (≈ 1.02 µM)
MIC [15]: 0.32 µg/mL (≈ 0.817 µM)
MIC [16]: 25 µg/mL (≈ 63.9 µM)
MIC (Serratia marcescens 1065; Serratia marcescens, 1065, pH 7.2, read-out: Minimum inhibition concentration (MIC)): 6.25 µg/mL (≈ 16 µM)
MIC [17]: 0.78 µg/mL (≈ 1.99 µM)
MIC [18]: > 100 µg/mL
MIC [19]: > 100 µg/mL
MIC [20]: 0.32 µg/mL (≈ 0.817 µM)
MIC [21]: 12.5 µg/mL (≈ 31.9 µM)
MIC (Escherichia coli 76-2): 3.12 µg/mL (≈ 7.97 µM)
MIC [22]: 50 µg/mL (≈ 128 µM)
MIC ([23]; R12Z338, pH 7.2, read-out: Minimum inhibition concentration (MIC)): 6.25 µg/mL (≈ 16 µM)
MIC [24]: 0.63 µg/mL (≈ 1.61 µM)

Reference: patent US4220755A, “Fortimicin B derivatives and process for production thereof” (Abbott Laboratories, priority 1976, dated 1980)
